Data on three compounds can be found in ChEMBL document CHEMBL1152086, “Synthesis and in vitro anti-HIV and antitumor activity of new 2-chloroethyl thiocarbamates” (1995).

A word on the GI50: it is the concentration at which growth is held to half of that of the control. Lower therefore signals greater sensitivity of the cells.

Each structure is given as a SMILES string. Active and inactive are the calls of the source. The rule behind the calls is not given here.

For one assay, the system named is K562. The experiment in a line: In vitro anticancer activity against K-562 leukemia cell line. The settings on record: Homo sapiens. The format is functional.
The test system of assay [1] is NCI. The experiment in a line: In vitro anticancer activity against 9 NCI renal cancer cell lines; inactive. Type of assay: functional, cell-based.
The next assay deals with SCLC. The experiment in a line: In vitro anticancer activity against 2 NCI SCLC cell lines; inactive. Type of assay: functional, cell-based.
For another assay, the system named is RPMI-8226. The experiment in a line: In vitro anticancer activity against RPMI-8226 leukemia cell line. The settings on record: Homo sapiens. The format is functional.
For assay [2], the system named is NCI. The experiment in a line: In vitro anticancer activity against 8 NCI CNS cancer cell lines; inactive. Type of assay: functional, cell-based.
Assay [3] in a line: In vitro anticancer activity against 9 NCI melanoma cell lines; inactive. The format is functional.
In a further assay the test system is NSCLC. The experiment in a line: In vitro anticancer activity against 11 NCI NSCLC cell lines; inactive. Type of assay: functional, cell-based.
A further assay concerns Cancer cell lines. The experiment in a line: In vitro anticancer activity against 9 NCI colon cancer cell lines; inactive. The format is functional, cell-based.
For another assay, the system named is MOLT-4. The experiment in a line: In vitro anticancer activity against MOLT-4 leukemia cell line. Type of assay: functional. The following applies: Homo sapiens.
Assay [4] deals with CCRF-CEM. The experiment in a line: In vitro anticancer activity against CCRF-CEM leukemia cell line.(Maximum Concentration). The settings on record: Homo sapiens. Type of assay: functional.
The subject of the next assay is SR. The experiment in a line: In vitro anticancer activity against SR leukemia cell line. The format is functional. The following applies: Homo sapiens.
In assay [5] the test system is NCI. The experiment in a line: In vitro anticancer activity against 6 NCI ovarian cancer cell lines; inactive. The format is functional, cell-based.
The next assay relates to HL-60. The experiment in a line: In vitro anticancer activity against HL-60(TB) leukemia cell line. The settings on record: Homo sapiens. Type of assay: functional.
The test system of assay [6] is CCRF-CEM. The experiment in a line: In vitro anticancer activity against CCRF-CEM leukemia cell line. Type of assay: functional. The settings on record: Homo sapiens.

In the case of `O=C(NCCCl)SCCO`, the GI50 with K562, in the assay with RPMI-8226, in the assay on MOLT-4, in the assay with CCRF-CEM [4], in the assay with SR and in the assay on HL-60 was over 100 µM throughout. In addition, the outcome (in the assay on NCI [1]; in the assay on SCLC; with NCI [2]; in [3]; with NSCLC; in the assay with Cancer cell lines) was inactive. For the same compound, in the assay on NCI [5], the outcome was inactive.
With `CCOC(=O)CSC(=O)NCCCl`, the GI50 in the assay with K562 was 29 µM; with RPMI-8226, over 100 µM; in the assay on MOLT-4, over 100 µM; in the assay with CCRF-CEM [6] it was 7.22 µM; in the assay on SR it was over 100 µM; in the assay on HL-60, 22.3 µM. Also, the result (in the assay with NCI [1]; with SCLC; in the assay with NCI [2]; in [3]; with NSCLC; in the assay with Cancer cell lines) was inactive. Besides, the outcome in the assay with NCI [5] was inactive.
As to `O=C(NCCCl)Sc1ccccc1`, the outcome (with NCI [1]; in the assay with SCLC; in the assay on NCI [2]; in [3]; with NSCLC; with Cancer cell lines) was inactive. For the same compound, the result in the assay with NCI [5] was inactive.
